Ends that are not written are not given here.
How the values were obtained:
E. coli ATCC 27325 = type: cell-based, Escherichia coli; settings: ATCC 27325, 18 h
Description: The MICs of the designed peptides were measured against the gram-negative bacterium E. coli ATCC 27325 according to the general guidelines of the Clinical and Laboratory Standards Institute, with some modifications based on a study of cationic AMPs. Briefly, a single bacterial colony was cultured in Mueller−Hinton broth (MHB; Sigma–Aldrich) until the mid-log phase (optical density of 0.4–0.6 at 600 nm). The bacterial suspension was diluted with fresh MHB to a concentration of 10^6 colony-forming units (CFU)/mL. Next, two-fold serial dilutions (128 to 1 μM) of the peptides were prepared in MHB and mixed (1:1) with the diluted bacterial culture, resulting in a final peptide concentration ranging from 64 to 0.5 μM and final bacteria concentration of 5 × 10^5 cells/mL. The mixtures were placed into 96-well polypropylene microtiter plates (Corning), with sterile MHB used as a negative control and MHB inoculated with bacterial cells used as growth control. The plates were incubated for 18 h at 37 °C with shaking at 200 rpm. The MIC values were determined as the lowest concentrations at which no bacterial growth was recorded at 600 nm using a microplate reader (Infinite 200 Pro; Tecan, Männedorf, Switzerland).

E. coli [1] = assay: Antibacterial activity of peptide-coated surfaces (ISO 22196, modified), E. coli; type: cell-based, Escherichia coli
Description: (§1) To coat the designed peptides on a surface, 200 μL of freshly prepared 200 μM peptide solution (10 mM Tris-HCl, pH 8.5) was added into a 24-well PS plate and incubated for 10 min at 37 °C. After coating, the plates were rinsed with deionized water and air-dried. The PS, Ti, and PDMS pieces (1 cm × 1 cm) were coated in the same manner. For the PD-mediated AMP coating, a layer of PD was first coated on a 24-well PS plate by dip coating, as previously described, with minor modifications. Each PS well was treated with 2 mg/mL dopamine solution (10 mM Tris-HCl, pH 8.5) and incubated for approximately 1 h at 37 °C. The PD-coated wells were washed twice with deionized water to remove excess dopamine. To attach the NKC peptide to a PD-coated 24-well PS plate, NKC peptide solution (200 μM) was dispensed into each well, and the plate was incubated at 37 °C for 24 h. The wells with the immobilized peptide were then washed twice with deionized water.
(§2) The bactericidal activities of the AMP-coated surfaces were evaluated following the International Organization for Standardization 22196 standard with slight modifications. Overnight bacterial suspensions were subcultured in fresh LB until the mid-log phase and diluted to 10^6 cells/mL with 500-fold diluted LB. The AMP-coated and uncoated substrates (1 cm × 1 cm) were placed in 24-well plates, and 10 μL of the bacterial suspension was distributed over the substrate surface. The substrates were covered with a piece of polyethylene film (1 cm × 1 cm) and incubated for 2 h (37 °C, relative humidity: >90%). Subsequently, SCDLP broth (990 μL) was added, and viable cells were retrieved and serially diluted. Aliquots (100 μL) of the bacterial suspension were withdrawn and plated for colony counting.

P. aeruginosa [2] = assay: Antibacterial activity of peptide-coated surfaces (ISO 22196, modified), P. aeruginosa; type: cell-based, Pseudomonas aeruginosa; settings: NKC-DOPA5-coated PS, Ti and PDMS (1 cm × 1 cm), 10 μL of 10^6 cells/mL, 37 °C
Description: as §1
(§3) The bactericidal activities of the AMP-coated surfaces were evaluated following the International Organization for Standardization 22196 standard with slight modifications. Overnight bacterial suspensions were subcultured in fresh LB until the mid-log phase and diluted to 10^6 cells/mL with 500-fold diluted LB. […]

S. aureus [3] = assay: Antibacterial activity of peptide-coated surfaces (ISO 22196, modified), S. aureus; type: cell-based, Staphylococcus aureus; settings: NKC-DOPA5-coated PS, Ti and PDMS (1 cm × 1 cm), 10 μL of 10^6 cells/mL, 37 °C
Description: as §1, §3

E. coli [4] = assay: Bacterial adhesion / biofilm assay (live/dead staining, confocal microscopy), E. coli; type: cell-based, Escherichia coli; settings: 10^7 cells/mL, 24 h, 37 °C, SYTO9/PI staining
Description: (§4) The viability of bacterial cells adhered to the substrate surface was evaluated using the Live/Dead BacLight Bacterial Viability Kit (Thermo Fisher Scientific) according to the manufacturer’s instructions. Briefly, 200 μL of bacterial suspensions adjusted to 10^7 cells/mL were incubated on uncoated or peptide-coated chambered cover glasses (Thermo Fisher Scientific) at 37 °C for 24 h. After 24 h, planktonic cells were removed, and the surfaces were washed with 0.85% (w/v) NaCl buffer. Cells attached to the surfaces were stained for 15 min in the dark with BacLight stock solution containing two fluorescent nucleic acid stains, SYTO9 and propidium iodide (PI). After staining, the surfaces were washed with 0.85% NaCl solution, and the stained cells were photographed using confocal laser-scanning microscopy (LSM 5 LIVE DuoScan, Carl Zeiss, Jena, Germany) using a 63× objective. The excitation wavelengths were 488 and 561 nm for SYTO9 and PI, respectively.

P. aeruginosa [5] = assay: Bacterial adhesion / biofilm assay (live/dead staining, confocal microscopy), P. aeruginosa; type: cell-based, Pseudomonas aeruginosa; settings: 10^7 cells/mL, 24 h, 37 °C, SYTO9/PI staining
Description: as §4

S. aureus [6] = assay: Bacterial adhesion / biofilm assay (live/dead staining, confocal microscopy), S. aureus; type: cell-based, Staphylococcus aureus; settings: 10^7 cells/mL, 24 h, 37 °C, SYTO9/PI staining
Description: as §4

E. coli [7] = assay: Stability assessment of surface-coated peptide (antimicrobial activity after storage); type: cell-based, Escherichia coli; settings: for antimicrobial activity after storage: coated PS stored at 25 °C, (Nc−N)/Nc×100, mean ± SD
Description: as §2
To evaluate the stability of the surface-coated peptides, antimicrobial activity was determined as described above after incubating the AMP-coated PS plates for 1, 7, 14, 21, 28, 56, and 84 days at 4 °C and 25 °C and with the formula below: Antimicrobial activity (%)=Nc−N/Nc×100 where Nc and N represent the number of colonies after incubation on the control and AMP-coated substrates, respectively.

P. aeruginosa [8] = assay: Rat subcutaneous implant infection model; type: in vivo, Sprague–Dawley rats
Description: In vivo antibacterial activity was evaluated using specific pathogen-free Sprague–Dawley male rats (7 weeks old, weighing 200−220 g). All animal experiments were approved by the Animal Ethics Committee of KNOTUS, Incheon, Korea (approval no. 18-KE-383) and performed following the guidelines for the care and use of laboratory animals of KNOTUS. All rats were housed in individually ventilated cages and acclimated for 7 days before surgery. For implantation, the rats were anesthetized by intramuscular injection of Zoletil® (30 mg/kg; Virbac, Carros, France), and the dorsum was shaved and disinfected with 70% isopropyl alcohol. Approximately 1 cm wide incisions were made parallel to the spine and extended to the subdermal fascia. For the control group, uncoated Ti screws or PDMS slides were implanted into the left flank, whereas AMP-coated implants were inserted into the right flank. The wounds were sutured, and the implant site was marked on the skin. Setting the skin mark as a guide, 100 μL of a p. aeruginosa inoculum containing 2.5 × 10^8 cells/mL was injected subcutaneously. The rats were euthanized by CO2 asphyxia at 5 days after the bacterial challenge. The implants were removed using sterile tools and placed in sterile tubes containing 1 mL of PBS. For the detachment of bacteria from the implant materials, the tubes were sonicated for 15 min, and 10-fold serial dilutions of the bacterial solution were plated on LB agar for CFU determination. The tissues surrounding the implants were carefully removed, separately immersed in 1 mL of PBS, and homogenized. Bacteria in the tissues were quantified by serial dilution. For histological examination, the tissues surrounding the implants were formaldehyde-fixed, paraffin-embedded, and then stained with hematoxylin and eosin [26].

[9] = peptide-coated 24-well PS, 10^6 cells/mL E. coli, 2 h, colony counting
[10] = coated PDMS implants, 5 days post-inoculation

Description for HaCaT cells: To evaluate the toxicity of the peptides coated on the substrates towards human skin, the mitochondrial dehydrogenase activity of HaCaT keratinocytes was measured in a modified 3-(4,5-dimethyl-2-thiazolyl)-2,5-diphenyl-2H-tetrazolium bromide (MTT) reduction assay. HaCaT cells were routinely cultured in Dulbecco’s modified Eagle’s medium (DMEM; Lonza, Basel, Switzerland) with 10% fetal bovine serum (Lonza) and 1% penicillin–streptomycin solution (Thermo Fisher Scientific) in humidified 5% CO2 at 37 °C. The cultured cells were washed twice with phosphate-buffered saline (PBS; pH 7.4) and detached by trypsinization. The harvested HaCaT cells were diluted to 5 × 10^4 cells/mL, seeded into 12-well culture plates, and incubated in a humidified incubator with 5% CO2. After incubation, the medium was changed to serum-free DMEM, and uncoated or AMP-coated pieces (PS/Ti/PDMS; 1 cm × 1 cm) were placed upside down on the HaCaT cells. After 24 h, the pieces were removed, and MTT solution in 1 mL of DMEM was added to each well. […] The plate was incubated overnight, and the absorbance was measured at 570 nm using a microplate reader (Tecan Infinite 200 Pro). […] Cell viability was expressed as the percentage of surviving cells on the coated substrates relative to those on the uncoated substrates.

APKAMKLLKKLLKLQKKGI-NH2 (C-terminus assumed) [NKC, reference compound]
MIC (E. coli ATCC 27325): 1 µM | reduction of the cell count (E. coli [1]; NKC attached via polydopamine (PD) to PS plate, E. coli, 2 h): approximately 4.2 log

APKAMKLLKKLLKLQKKGIGGGGSGGGGSYYYYY [NKC-DOPA5]
number of viable bacterial cells after 2 h (E. coli [1]; NKC-DOPA5-coated PS, Ti and PDMS (1 cm × 1 cm), 10 μL of 10^6 cells/mL, 37 °C): zero | bacterial growth on coated surface (in words) (E. coli [1]; [9]): No bacterial growth was observed | number of viable bacterial cells after 2 h (P. aeruginosa [2]): zero | number of viable bacterial cells after 2 h (S. aureus [3]): zero | biofilm formation on coated surface (E. coli [4]): remarkably inhibited biofilm formation | biofilm formation on coated surface (P. aeruginosa [5]): remarkably inhibited biofilm formation | biofilm formation on coated surface (S. aureus [6]): remarkably inhibited biofilm formation | change in antimicrobial activity during storage (E. coli [7]; coated PS plate stored at 4 °C for 84 days): no change | antimicrobial activity after storage (E. coli [7]; 7 days): 99.75 ± 0.16% | antimicrobial activity after storage (E. coli [7]; 84 days): 99.17 ± 3.25% | decrease in number of bacteria recovered from surrounding tissues vs pristine (P. aeruginosa [8]; PDMS implants, 5 days post-inoculation): approximately 3.8 log CFU/g | difference in number of bacteria in surrounding tissues, pristine vs coated (P. aeruginosa [8]; Ti implants, 5 days post-inoculation): 3 log CFU/g | implants from which microorganisms were absent (P. aeruginosa [8]; [10]): three of the five implants | median number of bacteria recovered from surrounding tissues (P. aeruginosa [8]; [10]): 0.9 log CFU/g | average bacterial count per implant (P. aeruginosa [8]; coated PDMS implants, five implants, 5 days post-inoculation): 0.92 log CFU/mL per implant | microbial loads of the two colonised implants (P. aeruginosa [8]; coated PDMS, the other two of five implants, 5 days post-inoculation): 2.0−2.6 log CFU/mL | number of bacteria from tissues surrounding the implants (P. aeruginosa [8]; coated Ti implants, 5 days post-inoculation): 2.7 log CFU/g | microorganisms on implants (P. aeruginosa [8]; coated Ti screw, five implants, 5 days post-inoculation of P. aeruginosa): no microorganisms were observed | inflammation of tissues around the implants (P. aeruginosa [8]; coated Ti screws and PDMS, 5 days post-inoculation, gross observation): without apparent inflammation | cell viability (HaCaT cells): > 90%

APKAMKLLKKLLKLQKKGIGGGGSGGGGSYYY [NKC-DOPA3, NKC with glycine–serine linker and 3 DOPA moieties at the C-terminus]
log reduction in the cell count (E. coli [1]; [9]): 5.7 log

APKAMKLLKKLLKLQKKGIGGGGSGGGGSYYYYYYY [NKC-DOPA7, NKC with glycine–serine linker and 7 DOPA moieties at the C-terminus]
bacterial growth on coated surface (in words) (E. coli [1]; [9]): No bacterial growth was observed

APKAMKLLKKLLKLQKKGIGGGGSGGGGSY [NKC-DOPA1, NKC with glycine–serine linker and 1 DOPA moiety at the C-terminus]
bacterial growth on coated surface (in words) (E. coli [1]; [9]): hardly inhibited bacterial growth

— PMC8584447, “Adhesive Antimicrobial Peptides Containing 3,4-Dihydroxy-L-Phenylalanine Residues for Direct One-Step Surface Coating” (International Journal of Molecular Sciences, 2021)
